Patent US10543183B2, “Treatment and diagnosis of melanoma” (The Rockefeller University, priority 2012, dated 2020)
Where a name gives a salt, the structure may show the parent alone.

What was measured:
[1] = tested on: ApoE promoter fused to ME.1 or ME.2 in MeWo cells; assay: ApoE promoter activity assay (luciferase reporter); format: cell-based, human; details: 1 μM, 24 hours
Text: The ApoE promoter, consisting of a sequence spanning 980 base pairs upstream and 93 base pairs downstream of the ApoE gene, was cloned into a pGL3-Basic vector (E1751, Promega Corporation, Madison, Wis.) upstream of the firefly luciferase gene using NheI and SacI restriction enzymes. Then, multi-enhancer elements 1 (ME.1) and 2 (ME.2) were cloned directly upstream of the ApoE promoter using MluI and […] restriction enzymes. To assess ApoE promoter- and ME.1/ME.2-driven transcriptional activation by LXR agonists, 5×10^4 MeWo cells were seeded into a 24-well plate. The following day, 100 ng of pGL3-ME.1/ME.2-ApoE promoter construct and 2 ng of pRL-CMV renilla luciferase construct (E2261, Promega) were co-transfected into cells in the presence of DMSO, GW3965, or T0901317 at 1 μM, each condition in quadruplicate. To assess transcriptional activation by LXRα or LXRβ, 5×10^4 MeWo cells expressing a control shRNA or shRNA targeting LXRα or LXRβ were seeded into a 24-well plate. […] After 24 hours, cells were lysed, and cell lysate was analyzed for firefly and renilla luciferase activity using the Dual Luciferase Assay System (E1960, Promega) and a Bio-Tek Synergy NEO Microplate Reader. Firefly luciferase signal was normalized to renilla luciferase signal and all data are expressed relative to the luciferase activity ratio measured in the DMSO-treated control cells.

[2] = tested on: extracellular ApoE protein from melanoma cells; assay: ApoE ELISA in conditioned media; format: cell-based, human; details: MeWo cells, 1 μM, 72 hours
Experimental: Extracellular ApoE levels in serum-free conditioned media from melanoma cells treated with DMSO, GW3965, or T0901317 (1 μM each) were quantified using the ApoE ELISA kit (Innovative Research) at 72 hours following treatment.

[3] = tested on: B16F10 mouse melanoma cells; assay: subcutaneous B16F10 tumor growth in mice; format: in vivo; details: for primary tumor growth in vivo (FIG. 21): mouse; for suppression of tumor growth by B16F10 cells: 20 mg/kg, tumors 5-10 mm3 at start, immunocompetent mice
[4] = tested on: breast, renal, pancreatic and lung cancer cell lines; assay: trans-well matrigel invasion assay, other cancer types; format: cell-based, human
Experimental: The ability of cancer cells to invade through matrigel in vitro was tested by using a trans-cell matrigel invasion chamber system (354480, BD Biosciences). Various cancer cell lines were serum-starved overnight in media containing 0.2% FBS. The following day, invasion chambers were pre-equilibrated prior to the assay by adding 0.5 mL of starvation media to the top and bottom wells. Meanwhile, cancer cells were trypsinized and viable cells were counted using the trypan blue dead cell exclusion dye. Cancer cells were then resuspended at a concentration of 1×10^5 cells/1 mL starvation media, and 0.5 mL of cell suspension, containing 5×10^4 cells, was seeded into each trans-well. […] The basal side of each insert was imaged using an inverted fluorescence microscope (Zeiss Axiovert 40 CFL) at 5× magnification, and the number of DAPI-positive cells was quantified using ImageJ.
The cells were serum starved for 16 hours in 0.2% FBS media in the presence of DMSO or GW3965. […] Meanwhile, cancer cells were trypsinized and viable cells were counted using trypan blue. […] The basal side of each insert was imaged using an inverted fluorescence microscope (Zeiss Axiovert 40 CFL) at 5× magnification, and the number of DAPI-positive cells was quantified using ImageJ.

[5] = tested on: B16F10 mouse melanoma cells; assay: subcutaneous B16F10 tumor growth in mice; format: in vivo; details: chow 100 mg/kg
Experimental: First, the cells were treated with 500 μg/mL DTIC for one week. Following this initial DTIC treatment, the remaining (˜10%) viable cells were allowed to recover for one week, after which 750 μg/mL of DTIC was added to the cell media for 5 days. Subsequent to this high-dose treatment, the cells were allowed to recover in the presence of low-dose DTIC (100 μg/mL) for one week. The cells were then continuously cultured in cell media containing 200 μg/mL DTIC for at least one month prior to grafting the cells into mice. DTIC was added to fresh cancer cell media every 3 days. […] DTIC was dissolved in the presence of citric acid (1:1 by weight) in water and administered daily by intraperitoneal injection.

MeWo melanoma cells = assay: orthotopic metastasis assay after tumor excision; format: in vivo, mouse; details: oral, chow 100 mg/kg for 1 month
Experimental: To determine the effect of GW3965 treatment on lung colonization by melanoma cells dissociated from an orthotopic site, 1×10^6 MeWo cells expressing a luciferase reporter were subcutaneously injected into both lower flanks of NOD Scid mice. Upon the formation of tumors measuring ˜300 mm^3 in volume, the tumors were excised and the mice were randomly assigned to a control diet or a GW3965-supplemented diet (100 mg/kg) treatment. One month after tumor excision, the lungs were extracted and lung colonization was measured by ex vivo bioluminescence imaging. To histologically confirm the extent of melanoma lung colonization, lungs were then fixed in 4% PFA overnight, paraffin-embedded, section into […] increments and stained for human vimentin (VP-V684, Vector Laboratories).

[6] = tested on: MDA-468 human breast cancer cells; assay: MDA-468 breast cancer tumor growth in mammary fat pads; format: in vivo, mouse; details: diet 75 mg/kg/day
Experimental: The mice were assigned to a control diet treatment or a GW3965-supplemented diet treatment (75 mg/kg/day) two days prior to injection of the cancer cells.

Molecule	activity of luciferase reporter containing the ApoE promoter fused to ME.1 or ME.2 [1]	levels of secreted ApoE protein [2]	primary tumor growth in vivo (FIG. 21) [3]	suppression of tumor growth by B16F10 cells ([3]; oral)	tumor cell invasion across breast, renal cell and pancreatic cancer ([4]; 100 μg/mL at start of assay)	suppression of tumor growth by DTIC-resistant B16F10 clone [5]	inhibition of lung colonization by disseminated melanoma cells post-tumor excision (MeWo melanoma cells)	tumor cell invasion of renal, pancreatic and lung cancer cells ([4]; RCC, PANC1, H460 cells, 1 μM for 72 hours)	breast cancer tumor size in vivo [6]	suppression of tumor growth in mice genetically inactivated for ApoE ([3]; ApoE−/− mice, diet 20 mg/kg)	tumor growth inhibition upon LXRα inactivation ([3]; LXRα−/− mice, diet 20 mg/kg)	ability to suppress melanoma tumor growth upon genetic ablation of systemic LXRβ ([3]; LXRβ−/− mice, diet 20 mg/kg)	reduction in tumor growth by B16F10 cells ([3]; oral, 100 mg/kg)	reduction in growth of established large B16F10 tumors ([3]; tumors ~150 mm3 at start, chow 150 mg/kg)
O=S(=O)(c1ccccc1)N(CC(F)(F)F)c1ccc(C(O)(C(F)(F)F)C(F)(F)F)cc1 [T0901317 1]	enhance	elevated levels	inhibit	61%	–	–	–	–	–	–	–	–	–	–
recombinant ApoE3: recombinant human ApoE3 (4696, BioVision)	–	–	–	–	inhibited	–	–	–	–	–	–	–	–	–
O=C(O)Cc1cccc(OCCCN(Cc2cccc(C(F)(F)F)c2Cl)CC(c2ccccc2)c2ccccc2)c1 [GW3965 2, 3-[3-[N-(2-Chloro-3-trifluoromethylbenzyl)-(2,2-diphenylethyl)amino]propyloxy] phenylacetic acid hydrochloride]	enhance	elevated levels	inhibit	67%	–	more than 70%	17 fold	inhibition	significant reduction	completely ineffective	had no effect	blocked	80%	roughly 50%
